The source made the active and inactive calls. The rule behind the calls is not given here. Non-standard residues stand in square brackets, D forms with d. Residues, ends and D or L forms follow the SMILES beside them. *: point of attachment. Batracylin(8-NH) = O=C1c2ccccc2C2=Nc3ccc(N*)cc3CN12; Arg(NO2) = N=C(NCCC[C@H](N)C(=O)O)N[N+](=O)[O-]
Key:
[1] = Cytotoxicity against human HL60 cells after 120 hrs by MTT assay; format: functional, cell-based; conditions: HL-60, 120 h
A549 [2] = assay: Cytotoxicity against human A549 cells after 120 hrs by MTT assay; format: functional, cell-based; conditions: A549, 120 h
[3] = target: T1, DNA topoisomerase 1 (Homo sapiens) (UniProt P11387); assay: Inhibition of human topoisomerase-1-mediated relaxation of supercoiled plasmid pBR322 DNA at 1 to 100 uM after 30 mins by ethidium bromide staining
T1 sequence (whole entry): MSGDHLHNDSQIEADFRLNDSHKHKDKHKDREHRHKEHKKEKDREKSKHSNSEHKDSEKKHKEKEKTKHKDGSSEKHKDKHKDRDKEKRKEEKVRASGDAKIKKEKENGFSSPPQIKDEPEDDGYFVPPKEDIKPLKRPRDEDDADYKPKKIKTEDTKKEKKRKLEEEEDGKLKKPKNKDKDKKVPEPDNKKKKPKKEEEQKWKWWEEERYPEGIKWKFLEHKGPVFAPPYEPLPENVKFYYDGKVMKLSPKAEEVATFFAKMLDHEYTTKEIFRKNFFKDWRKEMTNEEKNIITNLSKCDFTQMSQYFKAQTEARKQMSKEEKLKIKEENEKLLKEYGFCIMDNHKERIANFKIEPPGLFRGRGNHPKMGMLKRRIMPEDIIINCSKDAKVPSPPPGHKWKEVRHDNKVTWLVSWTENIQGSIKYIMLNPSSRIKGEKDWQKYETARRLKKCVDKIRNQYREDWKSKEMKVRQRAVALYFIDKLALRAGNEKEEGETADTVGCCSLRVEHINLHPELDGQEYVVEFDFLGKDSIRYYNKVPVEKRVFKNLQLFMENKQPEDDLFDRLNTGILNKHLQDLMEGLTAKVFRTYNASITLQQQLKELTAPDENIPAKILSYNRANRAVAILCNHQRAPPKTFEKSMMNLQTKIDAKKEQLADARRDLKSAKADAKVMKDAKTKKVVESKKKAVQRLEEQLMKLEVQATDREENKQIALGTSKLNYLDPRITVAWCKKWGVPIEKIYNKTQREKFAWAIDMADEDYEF

[4] = target: DNA topoisomerase 2-alpha (Homo sapiens) (UniProt P11388); assay: Inhibition of human topoisomerase-2alpha-mediated relaxation of supercoiled plasmid pBR322 DNA after 30 mins by ethidium bromide staining
A549 [5] = assay: Induction of DNA damage in human A549 cells assessed as phosphorylation of H2AX histone at IC90 after 3 hrs by fluorescence microscopy; format: functional, cell-based
[6] = Cell cycle arrest in human HL60 cells assessed as accumulation at G2/M phase at IC90 after 24 to 120 hrs using propidium iodide staining by flow cytometry analysis; format: functional, cell-based; conditions: HL-60
HL-60 [7] = assay: Induction of apoptosis in human HL60 cells assessed as micronucleated cells at IC90 up to 120 hrs using Hoechst-33342 staining by fluorescent microscope analysis relative to BAT; format: functional, cell-based
A549 [8] = assay: Cell cycle arrest in human A549 cells assessed as accumulation at G2/M phase at IC90 after 24 hrs using propidium iodide staining by flow cytometry analysis; format: functional, cell-based
A549 [9] = assay: Cell cycle arrest in human A549 cells assessed as accumulation at G2/M phase at IC90 after 120 hrs using propidium iodide staining by flow cytometry analysis; format: functional, cell-based
[10] = Cell cycle arrest in human HL60 cells assessed as abnormal mitotic figures at IC90 after 24 to 120 hrs using propidium iodide staining by flow cytometry analysis; format: functional, cell-based; conditions: HL-60
HL-60 [11] = assay: Induction of apoptosis in human HL60 cells assessed as increase of debris fraction at IC90 up to 120 hrs using Hoechst-33342 staining by fluorescent microscope analysis relative to BAT; format: functional, cell-based
A549 [12] = assay: Induction of apoptosis in human A549 cells assessed as change in nuclear and cellular morphology at IC90 up to 120 hrs using Hoechst-33342 staining by fluorescent microscope analysis; format: functional, cell-based
A549 [13] = assay: Induction of apoptosis in human A549 cells assessed as increase of debris fraction at IC90 up to 120 hrs using Hoechst-33342 staining by fluorescent microscope analysis relative to BAT; format: functional
HL-60 [14] = assay: Induction of apoptosis in human HL60 cells assessed as fraction of polyploid cells at IC90 up to 120 hrs using Hoechst-33342 staining by fluorescent microscope analysis relative to BAT; format: functional, cell-based
A549 [15] = assay: Ratio of BAT IC50 to compound IC50 for human A549 cells after 120 hrs by MTT assay; format: functional
HL-60 [16] = assay: Ratio of BAT IC50 to compound IC50 for human HL60 cells after 120 hrs by MTT assay; format: functional
[17] = Cytotoxicity against human HCT116 cells after 120 hrs by MTT assay; format: functional, cell-based; conditions: HCT-116, 120 h
HT-29 = assay: Cytotoxicity against human HT-29 cells after 120 hrs by MTT assay; format: functional, cell-based; conditions: HT-29, 120 h
[18] = Cytotoxicity against mouse NIH/3T3 cells after 120 hrs by MTT assay; format: functional, cell-based; conditions: NIH3T3, 120 h
MCF7 = assay: Cytotoxicity against human MCF7 cells after 120 hrs by MTT assay; format: functional, cell-based; conditions: MCF7, 120 h
P388 = assay: Cytotoxicity against mouse P388 cells after 120 hrs by MTT assay; format: functional, cell-based; conditions: P388, 120 h
LNCaP = assay: Cytotoxicity against human LNCAP cells after 120 hrs by MTT assay; format: functional, cell-based
[19] = Cytotoxicity against mouse WEHI1640 cells after 120 hrs by MTT assay; format: functional, cell-based; conditions: WEHI1640, 120 h
L1210 = assay: Cytotoxicity against mouse L1210 cells after 120 hrs by MTT assay; format: functional, cell-based; conditions: L1210, 120 h

Chain of DNA topoisomerase 2-alpha (Homo sapiens) (P11388 whole entry): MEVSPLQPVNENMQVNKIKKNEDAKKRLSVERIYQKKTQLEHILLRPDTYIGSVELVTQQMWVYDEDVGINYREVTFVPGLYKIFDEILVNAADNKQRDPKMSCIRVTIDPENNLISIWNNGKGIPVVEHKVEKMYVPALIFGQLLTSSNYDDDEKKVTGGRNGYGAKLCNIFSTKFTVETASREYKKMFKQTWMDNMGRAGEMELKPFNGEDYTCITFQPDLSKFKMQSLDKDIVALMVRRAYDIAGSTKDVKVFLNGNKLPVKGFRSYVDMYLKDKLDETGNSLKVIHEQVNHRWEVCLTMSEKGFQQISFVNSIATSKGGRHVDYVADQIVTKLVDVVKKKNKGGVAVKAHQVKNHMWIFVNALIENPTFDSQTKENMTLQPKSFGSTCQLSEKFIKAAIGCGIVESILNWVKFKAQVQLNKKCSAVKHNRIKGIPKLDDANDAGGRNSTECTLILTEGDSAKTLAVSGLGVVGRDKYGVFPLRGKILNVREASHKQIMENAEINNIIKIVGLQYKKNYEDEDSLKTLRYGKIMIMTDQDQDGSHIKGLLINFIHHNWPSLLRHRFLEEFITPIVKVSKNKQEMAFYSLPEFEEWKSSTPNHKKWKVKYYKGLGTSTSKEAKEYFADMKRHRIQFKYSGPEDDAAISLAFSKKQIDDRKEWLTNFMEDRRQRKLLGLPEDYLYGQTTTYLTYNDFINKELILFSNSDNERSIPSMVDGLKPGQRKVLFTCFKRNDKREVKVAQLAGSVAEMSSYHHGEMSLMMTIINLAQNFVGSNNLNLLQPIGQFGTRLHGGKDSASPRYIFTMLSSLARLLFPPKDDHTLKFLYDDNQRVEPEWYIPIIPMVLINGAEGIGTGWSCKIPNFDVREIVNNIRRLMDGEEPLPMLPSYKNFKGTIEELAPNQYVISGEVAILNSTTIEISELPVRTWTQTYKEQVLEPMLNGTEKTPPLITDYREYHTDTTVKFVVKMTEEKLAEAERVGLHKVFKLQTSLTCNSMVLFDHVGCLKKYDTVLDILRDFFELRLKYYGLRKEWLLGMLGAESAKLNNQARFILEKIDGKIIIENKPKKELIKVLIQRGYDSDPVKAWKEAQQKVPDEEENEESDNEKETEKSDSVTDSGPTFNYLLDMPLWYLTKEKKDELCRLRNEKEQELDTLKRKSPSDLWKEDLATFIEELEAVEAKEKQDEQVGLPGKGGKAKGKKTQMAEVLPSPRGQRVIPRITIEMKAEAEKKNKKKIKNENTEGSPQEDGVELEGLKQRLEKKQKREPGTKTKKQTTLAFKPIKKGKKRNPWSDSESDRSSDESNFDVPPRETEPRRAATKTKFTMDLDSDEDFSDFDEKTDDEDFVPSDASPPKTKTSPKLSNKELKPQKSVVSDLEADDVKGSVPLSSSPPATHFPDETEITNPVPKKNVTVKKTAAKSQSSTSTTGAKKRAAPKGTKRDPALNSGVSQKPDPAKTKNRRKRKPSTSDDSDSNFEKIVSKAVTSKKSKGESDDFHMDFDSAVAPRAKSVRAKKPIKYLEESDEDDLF

C[C@H](N)C(=O)NCCCC[C@H](NC(=O)[C@@H](N)[C@@H](C)O)C(=O)N1CCC[C@H]1C(=O)N[C@@H](CCCNC(=N)N[N+](=O)[O-])C(=O)Nc1ccc2c(c1)CN1C(=O)c3ccccc3C1=N2 (H-TK(Ala)P[Arg(NO2)]-{Batracylin(8-NH)})
IC50 [1]: 19.6 µM
IC50 (A549 [2]): 5.9 µM

C[C@@H](O)[C@H](N)C(=O)N[C@@H](CCCCNC(=O)CN)C(=O)N1CCC[C@H]1C(=O)N[C@@H](CCCNC(=N)N[N+](=O)[O-])C(=O)Nc1ccc2c(c1)CN1C(=O)c3ccccc3C1=N2 (H-TK(Gly)P[Arg(NO2)]-{Batracylin(8-NH)})
IC50 [1]: > 100 µM
IC50 (A549 [2]): > 100 µM

CC[C@H](C)[C@H](N)C(=O)NCCCC[C@H](NC(=O)[C@@H](N)[C@@H](C)O)C(=O)N1CCC[C@H]1C(=O)N[C@@H](CCCNC(=N)N[N+](=O)[O-])C(=O)Nc1ccc2c(c1)CN1C(=O)c3ccccc3C1=N2 (H-TK(Ile)P[Arg(NO2)]-{Batracylin(8-NH)})
IC50 [1]: 15.4 µM
inhibition [3]: inactive
inhibition [4]: Dose-dependent effect
IC50 (A549 [2]): 17.4 µM

CC(C)C[C@H](N)C(=O)NCCCC[C@H](NC(=O)[C@@H](N)[C@@H](C)O)C(=O)N1CCC[C@H]1C(=O)N[C@@H](CCCNC(=N)N[N+](=O)[O-])C(=O)Nc1ccc2c(c1)CN1C(=O)c3ccccc3C1=N2 (H-TK(Leu)P[Arg(NO2)]-{Batracylin(8-NH)})
IC50 [1]: 83.7 µM
inhibition [3]: inactive
inhibition [4]: Dose-dependent effect
IC50 (A549 [2]): > 100 µM

CC(C)[C@H](N)C(=O)NCCCC[C@H](NC(=O)[C@@H](N)[C@@H](C)O)C(=O)N1CCC[C@H]1C(=O)N[C@@H](CCCNC(=N)N[N+](=O)[O-])C(=O)Nc1ccc2c(c1)CN1C(=O)c3ccccc3C1=N2 (H-TK(Val)P[Arg(NO2)]-{Batracylin(8-NH)})
IC50 [1]: > 100 µM
IC50 (A549 [2]): > 100 µM

C[C@@H](O)[C@H](N)C(=O)N[C@@H](CCCCN)C(=O)N1CCC[C@H]1C(=O)N[C@@H](CCCNC(=N)N[N+](=O)[O-])C(=O)Nc1ccc2c(c1)CN1C(=O)c3ccccc3C1=N2 (H-TKP[Arg(NO2)]-{Batracylin(8-NH)})
Activity (A549 [5]): Active
Activity [6]: inactive
IC50 [1]: 77.3 µM
Activity (HL-60 [7]): Active
Activity (A549 [8]): Active
Activity (A549 [9]): Active
Activity [10]: Active
Activity (HL-60 [11]): Active
Activity (A549 [12]): inactive
IC50 (A549 [2]): 52.8 µM
fold change (FC) (A549 [13]): 3.5
Activity (HL-60 [14]): Active

C[C@H](N)C(=O)NCCCC[C@H](NC(=O)[C@@H]1CCCN1C(=O)[C@@H](N)CCCNC(=N)N[N+](=O)[O-])C(=O)N[C@H](C(=O)Nc1ccc2c(c1)CN1C(=O)c3ccccc3C1=N2)[C@@H](C)O (H-[Arg(NO2)]PK(Ala)T-{Batracylin(8-NH)})
IC50 [1]: 11.1 µM
IC50 (A549 [2]): 5.6 µM

C[C@@H](O)[C@H](NC(=O)[C@H](CCCCNC(=O)CN)NC(=O)[C@@H]1CCCN1C(=O)[C@@H](N)CCCNC(=N)N[N+](=O)[O-])C(=O)Nc1ccc2c(c1)CN1C(=O)c3ccccc3C1=N2 (H-[Arg(NO2)]PK(Gly)T-{Batracylin(8-NH)})
IC50 [1]: 28.7 µM
IC50 (A549 [2]): > 100 µM

CC[C@H](C)[C@H](N)C(=O)NCCCC[C@H](NC(=O)[C@@H]1CCCN1C(=O)[C@@H](N)CCCNC(=N)N[N+](=O)[O-])C(=O)N[C@H](C(=O)Nc1ccc2c(c1)CN1C(=O)c3ccccc3C1=N2)[C@@H](C)O (H-[Arg(NO2)]PK(Ile)T-{Batracylin(8-NH)})
Ratio IC50 (A549 [15]): >=10
IC50 [1]: 4.7 µM
inhibition [3]: inactive
inhibition [4]: Dose-dependent effect
IC50 (A549 [2]): 4.8 µM
Ratio IC50 (HL-60 [16]): >=10

CC(C)C[C@H](N)C(=O)NCCCC[C@H](NC(=O)[C@@H]1CCCN1C(=O)[C@@H](N)CCCNC(=N)N[N+](=O)[O-])C(=O)N[C@H](C(=O)Nc1ccc2c(c1)CN1C(=O)c3ccccc3C1=N2)[C@@H](C)O (H-[Arg(NO2)]PK(Leu)T-{Batracylin(8-NH)})
Activity (A549 [5]): Active
Ratio IC50 (A549 [15]): >=10
Activity [6]: inactive
IC50 [1]: 5.3 µM
Activity (HL-60 [7]): Active
Activity (A549 [8]): Active
inhibition [3]: inactive
Activity (A549 [9]): Active
inhibition [4]: Dose-dependent effect
Activity [10]: Active
Activity (HL-60 [11]): Active
Activity (A549 [12]): inactive
IC50 (A549 [2]): 4 µM
Ratio IC50 (HL-60 [16]): >=10
Activity (HL-60 [14]): Active

CC(C)[C@H](N)C(=O)NCCCC[C@H](NC(=O)[C@@H]1CCCN1C(=O)[C@@H](N)CCCNC(=N)N[N+](=O)[O-])C(=O)N[C@H](C(=O)Nc1ccc2c(c1)CN1C(=O)c3ccccc3C1=N2)[C@@H](C)O (H-[Arg(NO2)]PK(Val)T-{Batracylin(8-NH)})
IC50 [1]: 11 µM
IC50 (A549 [2]): 13.1 µM

C[C@@H](O)[C@H](NC(=O)[C@H](CCCCN)NC(=O)[C@@H]1CCCN1C(=O)[C@@H](N)CCCNC(=N)N[N+](=O)[O-])C(=O)Nc1ccc2c(c1)CN1C(=O)c3ccccc3C1=N2 (H-[Arg(NO2)]PKT-{Batracylin(8-NH)})
Ratio IC50 (A549 [15]): 5
IC50 [1]: 30.8 µM
IC50 (A549 [2]): 8.7 µM
Ratio IC50 (HL-60 [16]): 2

Nc1ccc2c(c1)CN1C(=O)c3ccccc3C1=N2 [DANIQUIDONE]
Activity (A549 [5]): Active
Activity [6]: inactive
IC50 [1]: 66.6 µM
IC50 [17]: 88.7 µM
IC50 (HT-29): 64.3 µM
Activity (HL-60 [7]): Active
Activity (A549 [8]): Active
inhibition [3]: inactive
Activity (A549 [9]): Active
inhibition [4]: Dose-dependent effect
Activity [10]: Active
IC50 [18]: 69.9 µM
IC50 (MCF7): > 100 µM
Activity (HL-60 [11]): Active
Activity (A549 [12]): inactive
IC50 (A549 [2]): 46.3 µM
Activity (HL-60 [14]): Active
IC50 (P388): > 100 µM
IC50 (LNCaP): 90.2 µM
IC50 [19]: 58.4 µM
IC50 (L1210): > 100 µM

— ChEMBL document CHEMBL3739415, “Synthesis of functionalized new conjugates of batracylin with tuftsin/retro-tuftsin derivatives and their biological evaluation” (Eur J Med Chem, 2015)
